Patent US11001578B2, “N-((HET)arylmethyl)-heteroaryl-carboxamides compounds as plasma kallikrein inhibitors” (KALVISTA PHARMACEUTICALS LIMITED, priority 2014, dated 2021)

Legend:
[1] = biological target: Human KLK1 (Homo sapiens (Human), UniProt P06870); test: Determination of the IC50 for KLK1 (fluorogenic substrate H-DVal-Leu-Arg-AFC); type: biochemical; settings: 25° C.
Description: Determination of the IC50 for KLK1
Human KLK1 (Callbiochem) was incubated at 25° C. with the fluorogenic substrate H-DVal-Leu-Arg-AFC and various concentrations of the test compound. Residual enzyme activity (initial rate of reaction) was determined by measuring the change in […] at 410 nm and the IC50 value for the test compound was determined.

[2] = biological target: Human FXIa (Homo sapiens (Human), UniProt P03951); test: Determination of the % inhibition for FXIa (fluorogenic substrate Z-Gly-Pro-Arg-AFC); type: biochemical; settings: 40 μM of the test compound, 25° C.
Description: Determination of the % Inhibition for FXIa
Human FXIa (Enzyme Research Laboratories) was incubated at 25° C. with the fluorogenic substrate Z-Gly-Pro-Arg-AFC and 40 μM of the test compound. Residual enzyme activity (initial rate of reaction) was determined by measuring the change in […].

Human FXIa, sequence (P03951 388-625 limits assumed): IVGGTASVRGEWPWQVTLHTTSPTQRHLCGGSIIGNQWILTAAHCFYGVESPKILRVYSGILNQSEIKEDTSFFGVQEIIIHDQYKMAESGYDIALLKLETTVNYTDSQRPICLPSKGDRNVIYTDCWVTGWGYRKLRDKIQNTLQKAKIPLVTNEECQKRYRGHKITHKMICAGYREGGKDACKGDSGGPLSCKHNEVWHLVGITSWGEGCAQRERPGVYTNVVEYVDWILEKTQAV
Human FXIa, sequence (P03951 19-387 partner limits assumed): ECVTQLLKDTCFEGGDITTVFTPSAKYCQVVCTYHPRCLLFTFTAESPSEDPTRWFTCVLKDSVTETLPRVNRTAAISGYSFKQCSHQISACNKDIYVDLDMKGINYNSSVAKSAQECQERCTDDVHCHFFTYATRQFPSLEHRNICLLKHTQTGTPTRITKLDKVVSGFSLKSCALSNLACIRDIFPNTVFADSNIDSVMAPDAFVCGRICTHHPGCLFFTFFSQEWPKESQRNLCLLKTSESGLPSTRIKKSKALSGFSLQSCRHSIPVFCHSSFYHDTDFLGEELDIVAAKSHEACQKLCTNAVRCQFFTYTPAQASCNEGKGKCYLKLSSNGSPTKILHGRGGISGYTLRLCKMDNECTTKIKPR
Human KLK1, sequence (P06870 25-262): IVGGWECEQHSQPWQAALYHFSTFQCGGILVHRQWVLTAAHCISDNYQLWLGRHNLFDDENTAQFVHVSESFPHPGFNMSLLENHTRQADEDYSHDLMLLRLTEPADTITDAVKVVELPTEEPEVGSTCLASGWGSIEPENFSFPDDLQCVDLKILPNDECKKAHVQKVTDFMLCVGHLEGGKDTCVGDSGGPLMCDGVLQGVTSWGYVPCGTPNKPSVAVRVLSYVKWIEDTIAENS

Row | Compound | IC50 [1] [µM] | % Inhibition @ 40 μM (human FXIa) [2] [%]
1 | COc1cc(F)c(CNC(=O)c2cn(Cc3ccc(Cn4cc(C)cn4)cc3)nc2C(F)(F)F)c(F)c1 [Example 11, N-[(2,6-difluoro-4-methoxyphenyl)methyl]-1-({4-[(4-methylpyrazol-1-yl)methyl]phenyl}methyl)-3-(trifluoromethyl)pyrazole-4-carboxamide] | > 10 | 
2 | NC(=O)c1cccc(CNC(=O)c2cn(Cc3ccc(Cn4ccccc4=O)cc3)nc2C2CC2)c1 [Example 49, N-[(3-carbamoylphenyl)methyl]-3-cyclopropyl-1-({4-[(2-oxopyridin-1-yl)methyl]phenyl}methyl)pyrazole-4-carboxamide] |  | 0
3 | COc1cccc(CNC(=O)c2cn(Cc3ccc(Cn4ccccc4=O)cc3)nc2C2CC2)c1F [Example 52, 3-cyclopropyl-N-[(2-fluoro-3-methoxyphenyl)methyl]-1-({4-[(2-oxopyridin-1-yl)methyl]phenyl}methyl)pyrazole-4-carboxamide] |  | 1
4 | Nc1nn(Cc2ccc(Cn3ccccc3=O)cc2)cc1C(=O)NCc1ccc(OC(F)(F)F)cc1 [Example 58, 3-amino-1-({4-[(2-oxopyridin-1-yl)methyl]phenyl}methyl)-N-{[4-(trifluoromethoxy)phenyl]methyl}pyrazole-4-carboxamide] |  | 0
